The values that follow come from patent publication US12060408B2, “Screening assays, modulators and modulation of activation of Receptor for Advanced Glycation End-products (RAGE)” (Monash University, priority 2017, dated 2024).

Test [1] deals with RAGE ligand-dependent activation of RAGE. Briefly: S100A8/A9-induced NFκB activation (p65 gene expression) in CHO cells expressing RAGE constructs. It is filed as cell-based, human.
A further test has as its system apoE KO mice. Briefly: Aortic expression of pro-inflammatory mediators by quantitative real-time PCR (aortic homogenates). It is filed as in vivo, mouse. The conditions noted are these: four-week infusion 1 μg/kg/min. The protocol:
Aortic Expression of Pro-Inflammatory Mediators by Quantitative Real-Time PCR
At the end of each study period, thoracic and abdominal aortae were placed in TRIZOL, snap frozen and stored at −80° C. RNA extraction and cDNA synthesis was performed in aortic homogenates using the Trizol method. Gene expression of pro-atherogenic mediators including adhesion molecules, cytokines, inflammatory, oxidative stress and macrophage markers, were estimated in aortic homogenates by quantitative real-time RT-PCR, performed using the TaqMan system based on real-time detection of accumulated fluorescence (ABI Prism 7700, Perkin-Elmer Inc, PE Biosystems, Foster City, CA, USA). Gene expression was normalized to 18S mRNA and reported as fold change compared to the level of expression in untreated control mice/cells, which were given an arbitrary value of 1.
(In general: Real-time PCR tracks product formation cycle by cycle.)

For test [2], the system named is PMAEC. The test can be described thus: Static adhesion assay (labelled THP-1 cells on PMAEC monolayer). The conditions noted are these: PMAEC from C57bl6 mice, 1 μM. Format: cell-based, mouse. The protocol:
Functional responsiveness to Ang II was determined in PMAEC using a static adhesion assay, in which PMAEC were seeded at 50,000 cells per well into six-well plates and allowed to grow to 70% confluency before treatment with 1 μM Ang II for 24 hours. Human THP-1 cells, which mimic monocytes and macrophages in the vasculature, were stained using CellVue Burgundy Fluorescent Cell labelling Kit (LICOR) as per manufacturer's instructions before seeding them onto the endothelial cell monolayers at 3×10^5 viable cells per well and incubated for 20 minutes at 37° C. The cells that had not adhered to the endothelial cell monolayer were removed and the wells washed with PBS before fixing with 4% formalin in PBS for 30 min. The adhesion of cells was then quantitated using the ODYSSEY infra-red imager (Licor). Additionally adhered cells were photographed at ×20 using light microscopy (Olympus CKX41).

Test [3] relates to PMAEC. Briefly: Generation of superoxide and additional markers of oxidative stress (DCFH, Rac-1 G-LISA, oxidized glutathione) in PMAEC. It is filed as cell-based, mouse. How it is done: Generation of Superoxide and Additional Markers of Oxidative Stress
To quantitate superoxide production induced by Ang II, a vessel chamber assay was used to measure total cytoplasmic and mitochondrial superoxide production in real time in PMAEC from AGER KO and C57Bl6 aortae. PMAEC were grown on collagen coated cover slips and mounted into a sealed glass chamber when they were 80% confluent. The chambers were perfused with Krebs buffer for an hour with fluorescent readings taken every 10 minutes to establish baseline readings. The cells were then perfused with 1 μM Ang II for 60 minutes and fluorescent readings were taken every 1 minute for a further 10 minutes. Fluorescence readings were expressed as change (Δ) in fluorescence arbitrary units from baseline. Levels of the activated NADPH oxidase subunit, Rac-1 activation was also measured in cell lysates after exposure to Ang II using a Rac-1 G-LISA activation assay (Cytoskeleton), as per manufacturers' instructions. Additional markers of oxidative stress were also assayed including levels of oxidized glutathione, (Cayman Chemical Company, US), performed as per manufacturer's instructions.

As to “L362WQRRQRRGEERKAPENQEEEEERAELNQAEEPEAGESSTGGP404 (LWQRRQRRGEERKAPENQEEEEERAELNQAEEPEAGESSTGGP; listed as Homo sapiens) [S391A-RAGE362-404, S391A mutant RAGE cytosolic tail; non-functional substitute for RAGE]”, the “inhibition of S100A8/A9-induced p65 expression” value in test [1] (AT1R-CHO cells also expressing full length RAGE) is recorded as “inhibitory effect”. Further, the “inhibition of RAGE ligand-dependent activation of wild-type RAGE (S100A8/A9)” value in test [1] (summary statement, cell system not given) is recorded as “inhibits”.
Consider “angiotensin II (DRVYIHPF) [Ang II, cognate ligand of AT1R]”, for which, in the test on apoE KO mice (AGER/apoE DKO mice), the “aortic expression of pro-atherogenic mediators” value is given as “preventing”. The “aortic expression of genes coding for pro-atherogenic mediators” value in the test on apoE KO mice (apoE KO mice) is recorded as “increases”. Moreover, the “adhesion of labelled THP-1 cells to PMAEC monolayer” value with PMAEC [2] is “increased adhesion”. For the same substance, the “ROS production and oxidative stress” value in the test on PMAEC [3] (PMAEC from AGER KO mice) was “does not lead to”. The “production of ROS and other markers of oxidative stress (activated rac-1, oxidised glutathione)” value in the test with PMAEC [3] (PMAEC from C57bl6 mice, 1 μM) is “rapid increase”.
